Results as given in US10772909B2, “System and method for insulin-mimetic of cartilage, bone, or osteochondral repair and piezoelectric composite scaffold” (New Jersey Institute of Technology, priority 2016, dated 2020).

Assays:
Format in all cases: cell-based
[1] = system: Human MSCs; assay: MSC growth on PCL scaffolds in growth medium (PicoGreen ds DNA cell number); details: GM; for cell number, change from days 4 to 7: p<0.05; for cell number compared to the other groups: days 7 and 11
Procedure: MSCs were cultured on the scaffolds in the presence of Na2WO4 (Na2WO4.2H2O, MW=329.85 g/mol; Sigma Aldrich) in the range of 0.01-50 mM to determine which concentrations supported cell growth. Before cell seeding, scaffolds were cut into 6 mm diameter disks using a biopsy punch (Integra Miltek, York, Pa.), sterilized in 100% ethanol for 20 minutes and were air dried overnight. Cryopreserved MSCs were thawed and expanded in tissue culture treated polystyrene flasks (Nunc, Thermo Fisher Scientific, Waltham, Mass., USA) in growth medium (GM) comprised of Dulbecco's Modified Eagle's Medium (DMEM, Invitrogen, Grand Island, N.Y., USA), 10% fetal bovine serum (Hyclone, Thermo Fisher Scientific) and 1% antibiotic-antimycotic (Invitrogen) at 37° C. and 5% CO2 until 70-80% confluent. Cells were trypsinized using 0.25% Trypsin-EDTA (Thermo Fisher Scientific), resuspended in GM and then seeded onto scaffolds at 3.5×10^4 cells/cm^2 and cultured for 11 days in GM alone or with Na2WO4. Na2WO4 was added to GM leading to final Na2WO4 concentrations of 0, 0.01, 0.1, 1, 10 and 50 mM. Samples (n=4) were harvested and analyzed at days 4, 7 and 11 for cell number using the PicoGreen® ds DNA assay (Life Technologies).
MSCs of known cell number were used as a standard. Standards and samples were prepared by lysing the cells using 0.1% Triton X-100 (Sigma-Aldrich, Mo., USA). The cell lysate of samples and standards (n=4 per group) was mixed with an equal volume of Pico Green dye, which binds to the double-stranded (ds) DNA. Fluorescence intensity was measured with a microplate reader ((FLX800, Biotek Instruments, Vt., USA)) at 480 nm excitation and 520 nm emission. A standard curve of known cell number was used to determine the sample cell number.

[2] = system: Human MSCs; assay: Chondrogenesis culture: sGAG production (Blyscan)
Procedure: (§1) Chondrogenesis Culture. Cryopreserved MSCs were thawed and expanded in GM until 70-80% confluent. Cells were trypsininzed and then seeded on 6 mm diameter scaffold disks at 1.76×10^5 cells/cm^2 and cultured for 28 days in GM, chondrogenic induction medium (CCM), or CCM without insulin, according to previously published methods. CCM consisted of DMEM high glucose containing 4 mM L-glutamine (Invitrogen, Grand Island, N.Y., USA), 0.1 μM dexamethasone (Sigma-Aldrich), 0.17 mM ascorbic acid-2-phosphate (Wako Chemicals, Richmond, Va., USA), 1% ITS+(6.25 µg/mL insulin, 6.25 µg/mL transferrin, 6.25 ng/mL selenous acid, 5.35 μg/ml linoleic acid and 1.25 mg of bovine serum albumin) Premix Culture Supplement (Corning, Corning, N.Y., USA), 1× antibiotic-antimycotic, 1 mM sodium pyruvate (Sigma-Aldrich), 0.35 mM proline (Sigma-Aldrich), and 10 ng/mL recombinant human transforming growth factor-beta3 (TGF-β3, ProSpec, Israel). CCM without insulin consisted of CCM where the 1% ITS+Premix Culture Supplement was substituted with 1% stock solution (6.25 μg/ml transferrin and 6.25 ng/ml selenous acid, 5.35 μg/ml lionleic acid (Sigma-Aldrich) and 1.25 mg of bovine serum albumin (Fisher Scientific). Na2WO4 was added to all media leading to final Na2WO4 concentrations of 0, 0.01, 0.1 and 1 mM. Samples were harvested and analyzed for sulfated glycosaminoglycans (sGAG), cell number and gene expression at day 14 and 28 and for collagen type II and immunostaining at day 28.
Production of sGAG and cell number were determined. Samples were digested using papain (Sigma-Aldrich, Mo., USA) buffer overnight at 65 C. ° following manufacturer's protocol. The sGAG assay is used to measure the total sulfated proteoglycan content using Blyscan sGAG Assay Kit (Biocolor, UK). Cell lysate of samples (n=4 per group) and color reagent were combined in transparent 96-well plate and the absorbance at 656 nm was measured using a microplate spectrophotometer (EMax, Molecular Devices, Melville, N.Y., USA). sGAG concentration was determined relative to chondroitin sulfate standard curve. PicoGreen® ds DNA assay (Life Technologies) was used to determine the cell number. MSCs of known cell number were used as standards. Standards were prepared by lysing the cells using papain buffer. The cell lysate of samples and standards (n=4 per group) was mixed with an equal volume of Pico Green reagent. Fluorescence intensity was measured with a microplate reader ((FLX800, Biotek Instruments, Vt., USA)) at 480 nm excitation and 520 nm emission. A standard curve of known cell number was used to determine the sample cell number. GAG production was normalized to cell number.

[3] = system: Human MSCs; assay: Chondrogenesis culture: immunostaining, confocal microscopy; details: day 28
Procedure: as §1
Immunostaining was used to observe cell morphology and collagen type II deposition at day 28. Samples were fixed using 4% paraformaldehyde for 20 minutes. Samples were permealized with 0.1% Triton-X for 15 minutes and then non-specific binding was blocked using 5% donkey serum (Sigma-Aldrich, Mo., USA) for 1 hour. Samples were incubated with mouse antihuman collagen type II antibody (EMD Millipore; Calif., USA) in 4° C. overnight. Samples were then incubated with conjugated northern light 493 secondary antibody (Donkey anti-Mouse IgG, Fisher Scientific, Rockford, Ill.) and rhodamine phalloidin (Life Technologies) for actin filament for 1 h. The nucleus was stained with 4′,6-diamidino-2-phenylindole (DAPI, Fisher Scientific). The images were taken using a confocal fluorescence microscope (Cl-si, Nikon, Japan).

[4] = 1 mM Na2WO4, CCM without insulin, day 28

[Na+].[Na+].[O]=[W](=[O])([O-])[O-] [Na2WO4, sodium tungstate]
cell number, change from days 4 to 7 ([1]; 0.01 mM Na2WO4): significantly increased in cell numbers
cell number, change from days 4 to 7 ([1]; 0.1 mM Na2WO4): significantly increased in cell numbers
cell number compared to the other groups ([1]; 1 mM Na2WO4): significantly lower cell numbers
cell number compared to the other groups ([1]; 10 mM Na2WO4): significantly lower cell numbers
cell number compared to the other groups ([1]; 50 mM Na2WO4): significantly lower cell numbers
sGAG production, change between days 14 and 28 ([2]; 0.01 mM Na2WO4, CCM): significant increase in sGAG production
sGAG production vs 0 mM group ([2]; 0.01 mM Na2WO4, CCM without insulin): higher than 0 mM group in CCM without insulin but not significantly
sGAG production vs all other groups ([2]; 0.01 mM Na2WO4, CCM, day 28, p<0.005): higher sGAG production than all other groups
normalized sGAG to cell number vs 0 and 1 mM groups ([2]; 0.01 mM Na2WO4, CCM, day 28, p<0.05): significantly higher
sGAG production vs 0 mM group ([2]; 0.1 mM Na2WO4, CCM without insulin): higher than 0 mM group in CCM without insulin but not significantly
sGAG production vs GM alone ([2]; 0.1 mM Na2WO4, GM, day 14): significantly higher
normalized sGAG to cell number vs 0.01 mM [2, 4]: significantly lower normalized sGAG to cell number
sGAG vs all other groups [2, 4]: significantly lower
collagen type II immunostaining vs 0 mM ([3]; 0.01 mM Na2WO4, GM): more intense
collagen type II immunostaining vs 0 mM ([3]; 0.1 mM Na2WO4, GM): more intense
collagen type II immunostaining ([3]; CCM without insulin groups, except for 1 mM Na2WO4): showed collagen type II staining
collagen type II immunostaining vs 0 mM ([3]; Na2WO4 groups, CCM): more intense collagen type II staining
actin filament staining as an indicator of attachment ([3]; all groups): intense actin filament staining
